Data on seven compounds can be found in paper PMC9686339, “Bioassay-guided isolation of Fenghuang Dancong tea constituents with α-glucosidase inhibition activities” (Frontiers in Nutrition, 2022).

Data set [1] has as its target α-glucosidase. The data set can be described thus: α-glucosidase inhibition assay (p-NPG substrate). Format: biochemical. Conditions: pH 6.8, 37°C. The protocol:
This experiment was carried out according to the literature ([11]). Briefly, the test sample was dissolved in solutions (SS) with DMSO as the solvent. p-NPG and α-glucosidase were, respectively mixed with phosphate buffer (PB, 60 mM phosphate, pH 6.8) and used as stock solutions. The concentration of α-glucosidase solution (GS) was 0.5 U/ml and that of p-NPG solution (NS) was 5 mM. In addition, four different solutions (A, B, C and D) were prepared: Solution A contained 112 μl PB, 20 μl GS, and 8 μl SS; Solution B contained 112 μl PB and 20 μl GS; Solution C contained 112 μl PB, 8 μl SS, and 20 μl GS; and Solution D contained 132 μl PB and 8 μl DMSO. After starting each reaction at 37°C, p-nitrophenol was quantified by measuring the absorbance at 405 nm with a UV–vis spectrophotometer. The inhibition rate was calculated according to equation (1):
(1) Inhibition rate (%)= [((Aas − Bas)[…]) / (Aas −Bas)][…],
where Aas, Bas, Cas and Das are the absorbances of solution A, B, C and D, respectively. The sample concentration that inhibited 50% α-glucosidase activity was defined as the IC50value.

Data set [2] can be described thus: Liposolubility (qualitative observation). Format: physicochemical.
The test system of data set [3] is α-glucosidase. The data set can be described thus: Enzyme kinetic experiments on α-glucosidase (reversibility, Lineweaver-Burk plots, secondary replot). It is filed as biochemical. The text has this:
The reversibility of enzyme inhibition can be determined according to the influence of sample concentration and enzyme concentration on enzyme activity. […] This implied that 1 was a reversible α-glucosidase inhibitor ([16]). The reversibility of the inhibition of α-glucosidase by different flavonoids has been studied extensively ([17]). However, definitive conclusions cannot been drawn about the relationship between the structure of flavonoids and the reversibility of the inhibition of α-glucosidase ([18]).
The double-reciprocal diagram, based on a Lineweaver–Burk plot, is widely used to investigate inhibitory kinetics of compounds on enzymes. […] Thus, the complex formed by the combination of compound 1 with substrate and α-glucosidase led to the inactivation of the latter. In addition, the number of binding sites between the compound and α-glucosidase can be obtained by a second linear fitting of the concentration of compound 1 and Y-intercept, which is shown in Figure 4D. […] Through further calculation, the binding constant was obtained as 4.58 × 10^4 L/mol. There were obvious differences in the inhibition mechanism of different types of flavonoids on α-glucosidase. […] The above facts indicate that the mechanisms of action of flavonoids on glucosidase are diverse and complex.

A further data set concerns HepG2 cells. The data set is described as follows: Glucose consumption assay in HepG2 cells. The conditions noted are these: 0.18 mg/L, 24 h, medium with 12.0 mM glucose. Format: cell-based. The protocol:
Here, HepG2 cells were used to evaluate the glucose consumption of the isolated compounds according to a method described in the literature ([12]). Briefly, HepG2 cells were cultured for 24 h. Subsequently, they were transferred from DMEM medium (containing FBS, PEM and SM) to another DMEM medium (containing 12.0 mM glucose). Then, HepG2 cells and the test samples with a concentration of 0.18 mg/L were incubated together for another 24 h. The glucose consumption was obtained by measuring the glucose content of the cell culture supernatant with a glucose kit.

Data set [4] concerns α-glucosidase. Further details: method as in PMID 30236734. The conditions noted are these: cited from earlier work.
The target in data set [5] is α-glucosidase. On the set-up: method as in PMID 28554631. The conditions noted are these: constituent of Yingde black tea; read-out: IC50 of α-glucosidase inhibition; cited from earlier work.

Like-named read-outs stand apart in the source and are kept apart here.

Broadly, the melting point is the temperature of the solid-liquid transition. For orientation: IC50 means the concentration that inhibits the measured activity by half. Compound `COc1ccc([C@H]2CC(=O)c3c(cc(O)c(/C=C(/C)CCC=C(C)C)c3O)O2)cc1O` [compound 1, (R, z)-6-(2,6-xylheptane-1,5-dien-1-yl)-5,7-dihydroxy-2-(3-hydroxy-4-methoxyphenyl) chroman-4-one] yielded a melting point of 165 °C. For the same compound, the IC50 on α-glucosidase [1] is 7.51 µM. Besides, the Liposolubility result in data set [2] is “excellent”. Also, the “Type of α-glucosidase inhibition” value with α-glucosidase [3] (Lineweaver-Burk plot) is “non-competitive”. In addition, the “Binding constant with α-glucosidase” value in the data set on α-glucosidase [3] (calculated from secondary replot) is 45800 L/mol. Moreover, the “Reversibility of the inhibition of α-glucosidase” value in the data set with α-glucosidase [3] (enzyme concentration vs enzyme activity at a series of sample dosages) is given as “reversible”. In addition, the “Number of binding sites with α-glucosidase” value in the data set with α-glucosidase [3] (secondary replot of Y-intercept vs concentration) was “one”. This compound returned a Glucose consumption in the data set with HepG2 cells of 10.58 ± 0.18 mmol/L.

In the case of `O=c1c(O)c(-c2ccccc2)oc2cc(O)cc(O)c12` [galangin], in the data set on α-glucosidase [4], the “Number of binding sites with α-glucosidase” value was “one”; the “Type of α-glucosidase inhibition” value is “mixed inhibition of competitive inhibition and non-competitive inhibition”.

At α-glucosidase [1], `COc1ccc([C@H]2CC(=O)c3c(cc(O)c(/C=C(\C)CCC=C(C)C)c3O)O2)cc1O` [compound 2, (R,E)-6-(2,6-dimethylhepta−1,5-dien-1-yl)-5,7-dihydroxy-2-(3-hydroxy-4-methoxyphenyl) chroman-4-one] showed an IC50 of 33.2 ± 2.21 µM. Besides, in data set [2], the Liposolubility entry is “almost the same”. Moreover, the Glucose consumption in the data set with HepG2 cells was determined as 9.40 ± 0.12 mmol/L.

On α-glucosidase [1], `CC1=CC[C@H](C)C(c2c(O)cc3occ(-c4ccc(O)cc4)c(=O)c3c2O)=CC1` [compound 3, (S)-6-(4,7-dimethylcyclohepta-1,4-dien-1-yl)-5,7-dihydroxy-3-(4-hydroxyphenyl)−4H-chromen-4-one] displayed a 50% inhibitory concentration (IC50) of 56.4 ± 2.11 µM. Besides, the Liposolubility result in data set [2] is “slightly inferior to the others”. In the data set on HepG2 cells, this compound came in with a Glucose consumption of 8.98 ± 0.39 mmol/L.

The compound ameridone D [compound 4] returned an IC50 against α-glucosidase [1] of 76.5 ± 3.52 µM. The Glucose consumption with HepG2 cells was determined as 8.30 ± 0.33 mmol/L.

Turning to ameridone E [compound 5], 81.7 ± 2.72 µM corresponded to half-maximal inhibition against α-glucosidase [1] (IC50). The compound also had a Glucose consumption in the data set with HepG2 cells of 9.06 ± 0.15 mmol/L.

Take amelliaone A: the half-inhibitory concentration (IC50) on α-glucosidase [5] was 10.2 µM.
